Measurements: patent US20190298740A1, “METHODS AND COMPOSITIONS FOR TREATING HALLUCINATIONS AND CONDITIONS RELATED TO THE SAME” (Enterin, Inc., priority 2018, published 2019)
Values joined by “and” are separate entries in the source; they are usually repeats but may differ in a detail not shown here. Equal values may be shown once. “Also recorded” adds a separate entry of the source.

Columns and labels:
[1] = system: patients with PD and constipation; experiment: Bowel function (prokinetic response, stool diary indices), Phase 2 trial; format: in vivo, human; settings: for Cumulative prokinetic response rate (CSBM within 24 hours of dosing): Stage 1, single dose; for Prokinetic response rate (CSBM within 24 hours of dosing on at least 2 of 3 days): Stage 2, daily dosing; for CSBM, weekly average: baseline 1.2 (0.90); for PAC-SYM: baseline 1.3 (0.45); for SBM, weekly average: baseline 2.6 (1.45)
Protocol: Following successful screening, all subjects underwent a 14-day run-in period where the degree of constipation was assessed through a validated daily log (Zinsmeister et al. 2013) establishing baseline CSBMs/week. Subjects with an average of <3 CSBMs/week proceeded to dosing.
(§1) Tolerability limits included diarrhea or vomiting.
In Stage 2, 34 patients were evaluated.
The primary efficacy outcome variable was whether or not a subject was a “success” or “failure”. This is an endpoint based on subject diary entries for the “fixed dose” period prior to the endpoint assessment defined as average complete stool frequency increase by 1 or more over baseline, or 3 or more complete spontaneous stools/week. The subject was deemed a “success” if s/he met one or more of the criteria listed above, otherwise the subject was deemed a “failure”. The primary analysis was based on all subjects with a baseline assessment and an assessment at the end of the “fixed-dose” period and was a comparison of the proportion of successes with 0.10 (the null hypothesis corresponding to no treatment effect).

[2] = Safety and adverse event profile, Phase 2 trial; format: in vivo, human;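 for Diarrhea, common adverse events by dose: number of subjects experiencing the event at each dose level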;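 for Nausea, common adverse events by dose: number of subjects experiencing the event at each dose level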;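 for Vomiting, common adverse events by dose: number of subjects experiencing the event at each dose level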
Excerpt: as §1

[3] = system: patients with PD; experiment: Circadian rhythm of wrist skin temperature; format: in vivo, human; settings: oral, 12 patients with evaluable data
Protocol: (6) I-Button Temperature Assessment. The I-Button is a small, rugged self-sufficient system that measures temperature and records the results in a protected memory section. The Thermochron I-Button DS1921H (Maxim Integrated, Dallas, Tex.) was used for skin temperature measurement. I-Buttons were programmed to sample every 10 mins., and attached to a double-sided cotton sport wrist band using Velcro, with the sensor face of the I-Button placed over the inside of the wrist, on the radial artery of the dominant hand. Subjects removed and replaced the data logger when necessary (i.e., to have a bath or shower). […] From the collected data, the mesor, amplitude, acrophase (time of peak temperature), Rayleight test (an index of interdaily stability), mean waveforms are calculated);
Assessments were made at baseline and at the end of the fixed dose and washout periods. Circadian system status was evaluated by continuously monitoring wrist skin temperature (Thermochron iButton DS1921H; Maxim, Dallas) following published procedures (Sarabia et al. 2008).
Circadian rhythm of skin temperature was evaluable in 12 patients (i.e., those who had recordings that extended from baseline through washout). Circadian system functionality was evaluated by continuously monitoring wrist skin temperature using a temperature sensor (Thermochron iButton DS1921H; Maxim, Dallas, Tex.) (Sarabia et al. 2008). […]

[4] = system: C. elegans αS model; settings: in vivo, C. elegans model of PD; cited from earlier work
[5] = system: mouse models of PD; settings: cited from earlier work
[6] = Stage 2, n = 34, fixed dose, mean (SD)

Compound: CC(C)[C@@H](CC[C@@H](C)[C@H]1CC[C@H]2[C@@H]3[C@H](O)C[C@H]4C[C@@H](NCCCNCCCCN)CC[C@]4(C)[C@H]3CC[C@]12C)OS(=O)(=O)O (single isomer, unassigned) [squalamine (ENT-01)]
- Patients responding within the effective dose range ([1]; 75 mg to 250 mg): 85%
- Cumulative prokinetic response rate (CSBM within 24 hours of dosing) ([1]; 25 mg): 25%
- Cumulative prokinetic response rate (CSBM within 24 hours of dosing) ([1]; 200 mg (maximum)): 80%
- Median efficacious dose ([1]; Stage 2): 100 mg
- Prokinetic response rate (CSBM within 24 hours of dosing on at least 2 of 3 days) ([1]; 75 mg): 26%
- Prokinetic response rate (CSBM within 24 hours of dosing on at least 2 of 3 days) ([1]; 250 mg): 85.3%
- CSBM, weekly average [1, 6]: 3.8 /week and 3.8 (2.4) /week
- PAC-SYM [1, 6]: 1.1 (0.49)
- Suppository use / rescue medication, weekly average ([1]; Stage 2, n = 34, fixed dose, mean (SD), baseline 1.8 (1.92)): 0.3 /week
- SBM, weekly average [1, 6]: 4.5 /week
- CSBM, weekly average ([1]; Stage 2, wash-out, mean (SD)): 1.8 (1.19) /week
- PAC-SYM ([1]; Stage 2, wash-out, mean (SD)): 1.1 (0.60)
- PAC-QOL ([1]; Stage 2, wash-out, mean (SD), baseline 1.4 (0.49)): 1.2 (0.63)
- Rescue meds, weekly average ([1]; Stage 2, wash-out, mean (SD), baseline 1.8 (1.92)): 1.0 (1.40) /week
- SBM, weekly average ([1]; Stage 2, wash-out, mean (SD)): 3.2 (1.80) /week
- Stool consistency (Bristol stool scale 1-7) ([1]; Stage 2, wash-out, mean (SD), baseline 2.7 (1.20)): 2.8 (1.39)
- Ease of passage (Ease of evacuation scale 1-7) ([1]; Stage 2, wash-out, mean (SD), baseline 3.2 (0.73)): 3.3 (0.81)
- CSBM frequency, randomized cohort ([1]; group later randomized to placebo (n = 9), fixed dose period on drug, baseline 1.6): 3.3 CSBM/week
- CSBM frequency, randomized cohort ([1]; group randomized to treatment (n = 6), fixed dose period, baseline 0.8): 3.2 CSBM/week
- CSBM frequency, randomized cohort ([1]; group randomized to treatment (n = 6), randomized period 4-6 days, baseline 0.8): 2.4 CSBM/week
- CSBM frequency, randomized cohort ([1]; group randomized to treatment (n = 6), washout, baseline 0.8): 0.9 CSBM/week
- Mean dose required for a bowel response ([1]; patients with baseline constipation of <1 CSBM/week): 192 mg
- Mean dose required for a bowel response ([1]; patients with baseline ≥1 CSBM/week): 120 mg
- Diarrhea, common adverse events by dose ([2]; Stage 1, 25 mg): 1
- Nausea, common adverse events by dose ([2]; Stage 1, 25 mg): 0
- Vomiting, common adverse events by dose ([2]; Stage 1, 25 mg): 0
- Diarrhea, common adverse events by dose ([2]; Stage 1, 50 mg): 1
- Nausea, common adverse events by dose ([2]; Stage 1, 50 mg): 0
- Vomiting, common adverse events by dose ([2]; Stage 1, 50 mg): 0
- Diarrhea, common adverse events by dose ([2]; Stage 1, 75 mg): 1
- Nausea, common adverse events by dose ([2]; Stage 1, 75 mg): 0
- Vomiting, common adverse events by dose ([2]; Stage 1, 75 mg): 0
- Diarrhea, common adverse events by dose ([2]; Stage 1, 100 mg): 0
- Nausea, common adverse events by dose ([2]; Stage 1, 100 mg): 1
- Vomiting, common adverse events by dose ([2]; Stage 1, 100 mg): 1
- Diarrhea, common adverse events by dose ([2]; Stage 1, 125 mg): 1
- Nausea, common adverse events by dose ([2]; Stage 1, 125 mg): 2
- Vomiting, common adverse events by dose ([2]; Stage 1, 125 mg): 1
- Diarrhea, common adverse events by dose ([2]; Stage 1, 150 mg): 1
- Nausea, common adverse events by dose ([2]; Stage 1, 150 mg): 0
- Vomiting, common adverse events by dose ([2]; Stage 1, 150 mg): 0
- Diarrhea, common adverse events by dose ([2]; Stage 1, 175 mg): 1
- Nausea, common adverse events by dose ([2]; Stage 1, 175 mg): 1
- Vomiting, common adverse events by dose ([2]; Stage 1, 175 mg): 0
- Diarrhea, common adverse events by dose ([2]; Stage 1, 200 mg): 0
- Nausea, common adverse events by dose ([2]; Stage 1, 200 mg): 2
- Vomiting, common adverse events by dose ([2]; Stage 1, 200 mg): 0
- Diarrhea, common adverse events by dose ([2]; Stage 2, 75 mg): 7
- Dizziness (lightheadedness included), common adverse events by dose ([2]; Stage 2, 75 mg): 8
- Nausea, common adverse events by dose ([2]; Stage 2, 75 mg): 3
- Diarrhea, common adverse events by dose ([2]; Stage 2, 100 mg): 10
- Dizziness (lightheadedness included), common adverse events by dose ([2]; Stage 2, 100 mg): 7
- Nausea, common adverse events by dose ([2]; Stage 2, 100 mg): 12
- Diarrhea, common adverse events by dose ([2]; Stage 2, 125 mg): 3
- Dizziness (lightheadedness included), common adverse events by dose ([2]; Stage 2, 125 mg): 8
- Nausea, common adverse events by dose ([2]; Stage 2, 125 mg): 4
- Diarrhea, common adverse events by dose ([2]; Stage 2, 150 mg): 2
- Dizziness (lightheadedness included), common adverse events by dose ([2]; Stage 2, 150 mg): 2
- Nausea, common adverse events by dose ([2]; Stage 2, 150 mg): 11
- Diarrhea, common adverse events by dose ([2]; Stage 2, 175 mg): 1
- Dizziness (lightheadedness included), common adverse events by dose ([2]; Stage 2, 175 mg): 0
- Nausea, common adverse events by dose ([2]; Stage 2, 175 mg): 12
- Diarrhea, common adverse events by dose ([2]; Stage 2, 200 mg): 3
- Nausea, common adverse events by dose ([2]; Stage 2, 200 mg): 6
- Diarrhea, common adverse events by dose ([2]; Stage 2, 225 mg): 3
- Nausea, common adverse events by dose ([2]; Stage 2, 225 mg): 1
- Diarrhea, common adverse events by dose ([2]; Stage 2, 250 mg): 2
- Course of all other AEs ([2]; both stages): resolved spontaneously without discontinuation
- Circadian rhythm of skin temperature, overall [3]: significant positive impact; also recorded: improved all markers of healthy circadian function
- Formation of aggregates of αS [4]: inhibits the formation of αS aggregates
- Gastrointestinal motility [5]: restores gastrointestinal motility
